“And” between values parts separate entries of the source, which are not always exact repeats. Identical values can stand only once. Like-named read-outs stand apart in the source and are kept apart here.
Experiments:
Assay in all cases: Enzyme inhibition kinetics, fluorogenic substrate ES001
Type in all cases: biochemical
[1] = molecular target: T1, human MT1-MMP/MMP-14 (catalytic domain) (Homo sapiens, UniProt P50281); conditions: for remaining activity at 0.01 µM: log [H1] (M) -8; for remaining activity at 0.0001 µM: log [H1] (M) -10
T1 construct: human MT1-MMP/MMP-14 (catalytic domain); purchased Calbiochem (San Diego, CA, USA)

[2] = molecular target: T2, APMA activated MMP-9 (MMP-9(A)) (Homo sapiens, UniProt P14780); conditions: for Vi/V0 AVG: APMA activated MMP-9, average
T2 construct: made in house; host or cells: Sf9 and High Five insect cells
Summary of the method: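 Recombinant full-length proMMP-9 expressed in insect cells was auto-activated with APMA and titrated with galardin. Activity at 0.05 nM enzyme was measured using 4.0 µM fluorogenic substrate ES001 in 100 µL 0.1 M Hepes pH 7.5 containing 10 mM CaCl2, 0.005% Brij-35 and 1.0% DMSO. Initial rates were followed at 37°C (excitation 320 nm, emission 405 nm) relative to inhibitor-free controls.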

[3] = molecular target: T3, Mag-Trypsin activated MMP-9 (MMP-9(MT)) (Homo sapiens, UniProt P14780); conditions: for remaining activity at 100 µM: 100 µM inhibitor; for Vi/V0 avg: Trypsin activated MMP-9, average
T3 construct: made in house; host or cells: Sf9 and High Five insect cells

[4] = MMP-14, log [H1] (M) -4, replicates
[5] = read-out: vi/v0 before correction of curve, MMP-14, replicates
[6] = read-out: vi/v0 corrected (v0 is the average of log -10 to log -7), MMP-14, replicates

T3 sequence (P14780 107-707 limits assumed): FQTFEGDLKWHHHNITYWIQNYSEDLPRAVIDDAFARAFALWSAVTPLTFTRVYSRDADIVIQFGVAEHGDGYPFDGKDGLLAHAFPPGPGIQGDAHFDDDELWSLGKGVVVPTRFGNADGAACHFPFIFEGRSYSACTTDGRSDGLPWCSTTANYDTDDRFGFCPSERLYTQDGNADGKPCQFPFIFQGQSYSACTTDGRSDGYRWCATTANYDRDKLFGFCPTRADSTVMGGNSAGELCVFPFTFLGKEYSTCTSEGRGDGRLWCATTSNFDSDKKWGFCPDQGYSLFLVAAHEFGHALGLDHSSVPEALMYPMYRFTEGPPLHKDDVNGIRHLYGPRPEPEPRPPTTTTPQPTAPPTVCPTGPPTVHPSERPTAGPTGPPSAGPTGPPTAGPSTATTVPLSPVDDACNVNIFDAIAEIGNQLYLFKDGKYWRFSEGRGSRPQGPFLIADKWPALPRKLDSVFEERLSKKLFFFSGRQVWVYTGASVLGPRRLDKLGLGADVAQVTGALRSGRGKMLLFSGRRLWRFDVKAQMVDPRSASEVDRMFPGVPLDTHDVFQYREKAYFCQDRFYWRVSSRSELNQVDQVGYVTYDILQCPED
T2 sequence (P14780 107-707 limits assumed): as above

**Q.** For `NC(=O)C(CCC(=O)O)NC(=O)C(CCC(=O)O)NC(=O)C(Cc1cc(-c2ccc(-c3cccc(Cl)c3)cc2)no1)CP(=O)(O)c1ccc(Br)cc1` (stereo not drawn) [H-1], which Ki [1] is on record?
**A.** 0.89 ± 0.04 µM

**Q.** And the remaining activity at 100 µM ([1]; 0.25 h, read-out: vi/v0 (single replicate), MMP-14, 100 µM inhibitor, 15 min pre incubation)?
**A.** 3.03%

**Q.** And the remaining activity at 100 µM ([1]; 0.25 h, read-out: vi/v0 avg, MMP-14, 100 µM inhibitor, 15 min pre incubation)?
**A.** 2.86%

**Q.** And the remaining activity at 100 µM ([1]; 0.5 h, read-out: vi/v0 (single replicate), MMP-14, 100 µM inhibitor, 30 min pre incubation)?
**A.** 4.56%

**Q.** What about the remaining activity at 100 µM ([1]; 0.5 h, read-out: vi/v0 avg, MMP-14, 100 µM inhibitor, 30 min pre incubation) of the same molecule?
**A.** 3.15%

**Q.** And the “inhibitory effect on enzymatic activity” value ([1]; MMP-14, 100 μM compound, in words)?
**A.** strong inhibition

**Q.** What about the “vi/v0 Av (bar diagram figure 7)” value ([1]; MMP-14, inhibitor 100 μM, average over preincubation times) of the same molecule?
**A.** 0.03265

**Q.** What about the “vi/v0 (relative enzyme activity with inhibitor), single determinations” value ([1]; MMP-14, inhibitor 100 μM, preincubation 0 min) of the same molecule?
**A.** 0.02699 and 0.03692 and 0.04011 and 0.0422

**Q.** And the “vi/v0 (relative enzyme activity with inhibitor), single determinations” value ([1]; MMP-14, inhibitor 100 μM, preincubation 15 min)?
**A.** 0.03033 and 0.02659 and 0.02876

**Q.** What about the “vi/v0 (relative enzyme activity with inhibitor), single determinations” value ([1]; MMP-14, inhibitor 100 μM, preincubation 30 min) of the same molecule?
**A.** 0.04555 and 0.0252 and 0.02389

**Q.** What about the “vi/v0 before correction of curve” value [1, 4] of the same molecule?
**A.** 0

**Q.** And the “vi/v0 corrected (v0 is the average of log -10 to log -7)” value [1, 4]?
**A.** 0

**Q.** What about the remaining activity at 100 µM ([1]; read-out: vi/v0 (single replicate), MMP-14, 100 µM inhibitor, no preincubation) of the same molecule?
**A.** 2.7%

**Q.** What about the remaining activity at 100 µM ([1]; read-out: vi/v0 avg, MMP-14, 100 µM inhibitor, no preincubation) of the same molecule?
**A.** 3.66%

**Q.** What about the remaining activity at 100 µM ([1]; read-out: vi/v0 before correction of curve, MMP-14, log [H1] (M) -4, replicates) of the same molecule?
**A.** 0%

**Q.** And the remaining activity at 0.01 µM [1, 5]?
**A.** 90.7%

**Q.** What about the remaining activity at 0.0001 µM [1, 5] of the same molecule?
**A.** 94.8%

**Q.** And the remaining activity at 100 µM ([1]; read-out: vi/v0 corrected (v0 is the average of log -10 to log -7), MMP-14, log [H1] (M) -4, replicates)?
**A.** 0%

**Q.** And the remaining activity at 0.01 µM [1, 6]?
**A.** 91.4%

**Q.** And the remaining activity at 0.0001 µM [1, 6]?
**A.** 95.4%

**Q.** And the Ki [2]?
**A.** 19 ± 3 µM

**Q.** What about the remaining activity at 100 µM ([2]; 0.25 h, read-out: vi/v0 avg, rMMP-9 (APMA activated), 100 µM inhibitor, 15 min pre incubation) of the same molecule?
**A.** 25.7%

**Q.** What about the remaining activity at 100 µM ([2]; 0.5 h, read-out: vi/v0 avg, rMMP-9 (APMA activated), 100 µM inhibitor, 30 min pre incubation) of the same molecule?
**A.** 25.3%

**Q.** What about the “Vi/V0 AVG” value ([2]; [H1] 10 μM) of the same molecule?
**A.** 0.7315

**Q.** And the “Vi/V0 AVG” value ([2]; [H1] 20 μM)?
**A.** 0.5955

**Q.** And the “Vi/V0 AVG” value ([2]; [H1] 30 μM)?
**A.** 0.5816

**Q.** What about the “Vi/V0 AVG” value ([2]; [H1] 40 μM) of the same molecule?
**A.** 0.5052

**Q.** And the “Vi/V0 AVG” value ([2]; [H1] 50 μM)?
**A.** 0.4481

**Q.** What about the “Vi/V0 AVG” value ([2]; [H1] 60 μM) of the same molecule?
**A.** 0.4125

**Q.** What about the “Vi/V0 AVG” value ([2]; [H1] 70 μM) of the same molecule?
**A.** 0.3558

**Q.** What about the “Vi/V0 AVG” value ([2]; [H1] 80 μM) of the same molecule?
**A.** 0.3478

**Q.** And the “Vi/V0 AVG” value ([2]; [H1] 90 μM)?
**A.** 0.3201

**Q.** And the “Vi/V0 AVG” value ([2]; [H1] 100 μM)?
**A.** 0.265

**Q.** And the “inhibitory effect on enzymatic activity” value ([2]; MMP-9(A), 100 μM compound, in words)?
**A.** strong inhibition

**Q.** And the “vi/v0 Av (bar diagram figure 7)” value ([2]; rMMP-9 (APMA activated), inhibitor 100 μM, average over 0, 15, 30 min preincubation)?
**A.** 0.2424

**Q.** What about the “vi/v0 (relative enzyme activity with inhibitor), single determinations” value ([2]; rMMP-9 (APMA activated), inhibitor 100 μM, preincubation 0 min) of the same molecule?
**A.** 0.1639 and 0.167 and 0.1831 and 0.1727 and 0.3076 and 0.251 and 0.276

**Q.** What about the remaining activity at 20 µM ([2]; read-out: Vi/V0, APMA activated MMP-9, [H1] 20 μM, replicate vi over each of 4 controls) of the same molecule?
**A.** 59.1%

**Q.** What about the remaining activity at 40 µM ([2]; read-out: Vi/V0, APMA activated MMP-9, [H1] 40 μM, replicate vi over each of 4 controls) of the same molecule?
**A.** 41.9%

**Q.** What about the remaining activity at 50 µM ([2]; read-out: Vi/V0, APMA activated MMP-9, [H1] 50 μM, replicate vi over each of 4 controls) of the same molecule?
**A.** 41.4%

**Q.** And the remaining activity at 60 µM ([2]; read-out: Vi/V0, APMA activated MMP-9, [H1] 60 μM, replicate vi over each of 4 controls)?
**A.** 36.8%

**Q.** What about the remaining activity at 70 µM ([2]; read-out: Vi/V0, APMA activated MMP-9, [H1] 70 μM, replicate vi over each of 4 controls) of the same molecule?
**A.** 33.5%

**Q.** What about the remaining activity at 80 µM ([2]; read-out: Vi/V0, APMA activated MMP-9, [H1] 80 μM, replicate vi over each of 4 controls) of the same molecule?
**A.** 32.6%

**Q.** And the remaining activity at 90 µM ([2]; read-out: Vi/V0, APMA activated MMP-9, [H1] 90 μM, replicate vi over each of 4 controls)?
**A.** 27.8%

**Q.** What about the remaining activity at 100 µM ([2]; read-out: Vi/V0, APMA activated MMP-9, [H1] 100 μM, replicate vi over each of 4 controls) of the same molecule?
**A.** 23.6%

**Q.** What about the remaining activity at 100 µM ([2]; read-out: vi/v0 (single replicate), rMMP-9 (APMA activated), 100 µM inhibitor, no preincubation) of the same molecule?
**A.** 16.4%

**Q.** What about the remaining activity at 100 µM ([2]; read-out: vi/v0 avg, rMMP-9 (APMA activated), 100 µM inhibitor, no preincubation) of the same molecule?
**A.** 21.7%

**Q.** And the Ki [3]?
**A.** 30 ± 4 µM

**Q.** And the remaining activity at 100 µM ([3]; 0.25 h, read-out: vi/v0 (single replicate), rMMP-9 (Mag-trypsin activated), 15 min pre incubation)?
**A.** 38.1%

**Q.** And the remaining activity at 100 µM ([3]; 0.25 h, read-out: vi/v0 avg, rMMP-9 (Mag-trypsin activated), 15 min pre incubation)?
**A.** 47.9%

**Q.** What about the remaining activity at 100 µM ([3]; 0.5 h, read-out: vi/v0 (single replicate), rMMP-9 (Mag-trypsin activated), 30 min pre incubation) of the same molecule?
**A.** 47.4%

**Q.** And the remaining activity at 100 µM ([3]; 0.5 h, read-out: vi/v0 avg, rMMP-9 (Mag-trypsin activated), 30 min pre incubation)?
**A.** 47.5%

**Q.** And the “inhibitory effect on enzymatic activity” value ([3]; MMP-9(MT), 100 μM compound, in words)?
**A.** strong inhibition

**Q.** And the Vi/V0 avg ([3]; [H1] 10 μM)?
**A.** 0.823

**Q.** What about the Vi/V0 avg ([3]; [H1] 20 μM) of the same molecule?
**A.** 0.766
